The values below come from US20140255451A1, “Implantable Medical Device Comprising A Macrocyclic Triene Lactone Drug And Minimal Antioxidant Stabilizer And Method Of Fabrication” (ABBOTT CARDIOVASCULAR SYSTEMS INC., priority 2013, published 2014).

The data set in a line: Decrease in BHT content on a stent due to each manufacturing step (FIG. 1). The data set is classed as physicochemical. The conditions noted are these: for reduction of the amount of BHT present in the drug reservoir layer: everolimus/BHT Xience V stent. From the text:
FIG. 1 is a graph showing the decrease in BHT content on a stent due to each step in the manufacturing process in which a macrocyclic triene lactone and BHT are present.
For example, with regard to the above-mentioned Xience V stent, the process steps for coating the stent include spray coating a drug reservoir layer solution comprising everolimus and BHT onto a stent, which includes a primer layer, then drying the coated stent at an elevated temperature, mounting the stent on a delivery catheter and, finally, sterilizing the mounted stent/catheter. […] FIG. 1 relates to a stent comprising everolimus as the macrocyclic triene lactone and BHT as the antioxidant stabilizer but it is understood that similar if not identical results would be observed if a different macrocyclic triene lactone were used with BHT. Likewise it is expected that similar results would be obtained in terms of the magnitude of the effect at each step of a different antioxidant stabilizer were used.
Calculation of the proper amount of BHT to include with everolimus on a stent to arrive at a finished catheter/stent product that has the desired amount of residual BHT, i.e., about 0.001% to about 0.01% w/w based on the weight of everolimus on the stent, can be accomplished in two ways. At one extreme is stoichiometric reduction in the amount of BHT on the stent as the fabrication steps progress. In this approach, the amount of BHT drops by a constant amount at each fabrication step independent of the starting amount of BHT present. At the other extreme is a percentage drop where amount of the BHT decreases by the same percentage in each fabrication step, likewise independent of starting amount of BHT. Table 1 exemplifies these extremes compared to the known loss of BHT using the current […] stent and everolimus, which contains 0.20% (w/w) of BHT based on the weight of everolimus.
Thus, the fabrication process shown in FIG. 1 affords a drop in the amount of BHT from 0.2% in the starting material down to approximately 0.044% in the finished product. To achieve a final amount of BHT that is between the presently preferred […] and 0.01%, assuming the same proportional decrease in the amount of BHT, a starting amount in the coating solvent would be about 0.0455% (w/w) or less. On the other hand, assuming the same absolute decrease in the amount of BHT present in the finished product (stoichiometric loss), would require something less than about 0.166% (w/w) BHT in the coating solvent. Of course, a BHT reduction process that is neither stoichiometric nor proportional is possible, in which case the starting amount of BHT on the stent would be between the two extremes. It is clear, however, that beginning with about 0.0166% (w/w) BHT based on everolimus would in all instances result in a finished product have less that 0.01% (w/w) of BHT, an amount that would for all intents and purposes result in an insignificant exposure of a patient to the antioxidant.

With `Cc1cc(C(C)(C)C)c(O)c(C(C)(C)C)c1` [BHT, butylated hydroxytoluene], the “reduction of the amount of BHT present in the drug reservoir layer” value by setting is: (catheter mounting step) “about 1%”; (drying step at elevated temperature) “about 9%”; (ethylene oxide sterilization step) “about 64%”; (spray coating step) “about 61%”. For the setting “current XV process, 0.20% BHT initially provided in everolimus”, the “% Antioxidant (w/w, based on everolimus) in finished product” value is recorded as “approximately 0.044 % (w/w, based on everolimus)”. In addition, where the note is “follow-up ethylene oxide sterilization on the already sterilized catheter/stent”, the “additional reduction of BHT” value is listed as 30%.
